# Results reported in ChEMBL document CHEMBL4033675, “Identification of novel 1,2,3,6-tetrahydropyridyl-substituted benzo[d]thiazoles: Lead generation and optimization toward potent and orally active EP1 receptor antagonists” (Bioorg Med Chem, 2017).
# Activity calls are given as the source filed them. The calls are words filed in the database; no cut-off is given here.
# System: not listed separately
# Assay: Chemical stability of the compound in pH 1 acidic aqueous medium
# Assay type: physicochemical
# Conditions: buffer
row,Stability,Compound
1,Stable,Cc1cc(C(=O)O)nn1Cc1cc(Cl)cc2sc(N3CC=CCC3)nc12

# System: not listed separately
# Assay: AUC (0 to infinity) in rat at 1 mg/kg, iv
# Assay type: ADME, organism-based
# Set-up: dose 1 mg/kg, time infinity, route intravenous
# Conditions: in vivo
row,AUC(0-inf) [ng·h/mL],Compound
1,4480,Cc1cc(C(=O)O)nn1Cc1cc(Cl)cc2sc(N3CC=CCC3)nc12

# System: not listed separately
# Assay: Total clearance in rat at 1 mg/kg, iv
# Assay type: ADME, organism-based
# Conditions: in vivo
row,clearance [mL/min/kg],Compound
1,3.79,Cc1cc(C(=O)O)nn1Cc1cc(Cl)cc2sc(N3CC=CCC3)nc12

# System: Rattus norvegicus
# Assay: Inhibition of 17-PTP-induced increase in intravesical pressure in intraduodenally dosed rat overactive bladder model pretreated for 5 mins followed by 17-PTP treatment with 30 mins time interval for 245 mins
# Assay type: functional, organism-based
# Conditions: not given
row,Compound,inhibition
1,Cc1cc(C(=O)O)nn1Cc1cc(Cl)cc2sc(-c3ccccc3)nc12,inactive
2,Cc1cc(C(=O)O)nn1Cc1cc(Cl)cc2sc(N3CC=CCC3)nc12,Dose-dependent effect

# System: not listed separately
# Assay: Volume of distribution in rat at 1 mg/kg, iv
# Assay type: ADME, organism-based
# Conditions: in vivo
row,Vd [L/kg],Compound
1,0.184,Cc1cc(C(=O)O)nn1Cc1cc(Cl)cc2sc(N3CC=CCC3)nc12

# Biological target: T1, Prostaglandin E2 receptor EP1 subtype (Rattus norvegicus, UniProt P70597)
# T1 sequence (P70597 whole entry): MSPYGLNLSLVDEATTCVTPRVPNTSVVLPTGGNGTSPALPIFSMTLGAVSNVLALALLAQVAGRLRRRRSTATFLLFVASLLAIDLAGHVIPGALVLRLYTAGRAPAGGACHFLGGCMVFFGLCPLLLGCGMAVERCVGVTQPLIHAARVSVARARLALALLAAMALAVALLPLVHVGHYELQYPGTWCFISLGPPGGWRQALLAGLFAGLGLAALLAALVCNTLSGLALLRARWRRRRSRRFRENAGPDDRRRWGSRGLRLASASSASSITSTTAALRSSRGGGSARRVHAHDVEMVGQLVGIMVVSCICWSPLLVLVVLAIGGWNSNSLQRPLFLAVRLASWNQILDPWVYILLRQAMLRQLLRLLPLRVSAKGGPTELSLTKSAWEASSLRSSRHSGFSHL
# Assay: Antagonist activity at rat EP1 receptor expressed in African green monkey COS1 cells assessed as inhibition of prostaglandin-E2-induced increase in intracellular calcium level preincubated for 60 secs followed by prostaglandin-E2 addition measured for 60 secs by Fluo 4-AM dye based fluorescence assay
# Assay type: functional, cell-based
# Conditions: not given
row,Compound,IC50 [nM]
1,Cc1cc(C(=O)O)nn1Cc1cc(Cl)cc2sc(N3CCSCC3)nc12,66
2,CCCN(CC)c1nc2c(Cn3nc(C(=O)O)cc3C)cc(Cl)cc2s1,270
3,Cc1cc(C(=O)O)nn1Cc1cc(Cl)cc2sc(C3=CCCCC3)nc12,110
4,Cc1cc(C(=O)O)nn1Cc1cc(Cl)cc2sc(N3CCCC3)nc12,30
5,Cc1cc(C(=O)O)nn1Cc1cc(C(=O)O)cc2sc(N3CC=CCC3)nc12,7900
6,CC(=O)c1cc(Cn2nc(C(=O)O)cc2C)c2nc(N3CC=CCC3)sc2c1,200
7,C=C(C)c1cc(Cn2nc(C(=O)O)cc2C)c2nc(N3CC=CCC3)sc2c1,160
8,Cc1cc(C(=O)O)nn1Cc1cc(Cl)cc2sc(-c3ccccc3)nc12,31
9,Cc1cc(C(=O)O)nn1Cc1cc(F)cc2sc(N3CC=CCC3)nc12,17
10,O=C(O)c1ccc(Cc2cc(Cl)cc3sc(N4CC=CCC4)nc23)o1,60
11,Cc1cc(C(=O)O)nn1Cc1cc(Cl)cc2sc(N3CCC3)nc12,320
12,Cc1cc(C(=O)O)nn1Cc1cccc2sc(N3CC=CCC3)nc12,32
13,CNc1nc2c(Cn3nc(C(=O)O)cc3C)cc(Cl)cc2s1,470
14,Cc1cc(C(=O)O)nn1Cc1cc(Cl)cc2nc(-c3ccccc3)sc12,7950
15,Cc1cc(C(=O)O)nn1Cc1cc(Cl)cc2nc(-c3ccccc3)oc12,750
16,O=C(O)c1ccc(Oc2cc(Cl)cc3sc(N4CC=CCC4)nc23)o1,150
17,Cc1cc(C(=O)O)nn1Cc1cc(Cl)cc2sc(N3CCCCC3)nc12,43
18,O=C(O)c1ccn(Cc2cc(Cl)cc3sc(N4CC=CCC4)nc23)c1,240
19,Cc1cc(C(=O)O)nn1Cc1cc(Cl)cc2oc(-c3ccccc3)nc12,8700
20,Cc1cc(C(=O)O)nn1Cc1cc(Cl)cc2sc(N3CCS(=O)(=O)CC3)nc12,4200
21,CC1=CCN(c2nc3c(Cn4nc(C(=O)O)cc4C)cc(Cl)cc3s2)CC1,64

# Other lines, results leading:
row,IC50 [nM],Compound
1,8800,CNc1cc(Cn2nc(C(=O)O)cc2C)c2nc(N3CC=CCC3)sc2c1
2,97,Cc1cc(C(=O)O)nn1Cc1cc(OC(F)(F)F)cc2sc(N3CC=CCC3)nc12
3,30,CC1=CCCN(c2nc3c(Cn4nc(C(=O)O)cc4C)cc(Cl)cc3s2)C1
4,22,Cc1cc(C(=O)O)nn1Cc1cc(Br)cc2sc(N3CC=CCC3)nc12
5,430,Cc1cc(C(=O)O)nn1Cc1cc(Cl)cc2sc(C3CCCCC3)nc12
6,6.4,O=C(O)c1ccc(Sc2cc(Cl)cc3sc(N4CC=CCC4)nc23)o1
7,5200,CC1=C(C)CN(c2nc3c(Cn4nc(C(=O)O)cc4C)cc(Cl)cc3s2)CC1
8,4900,Cc1cc(C(=O)O)nn1Cc1cc(Cl)cc2sc(N3CCN(C)CC3)nc12
9,210,Cc1cc(C(=O)O)nn1Cc1cc(N(C)C)cc2sc(N3CC=CCC3)nc12
10,33,C=C(C)c1nc2c(Cn3nc(C(=O)O)cc3C)cc(Cl)cc2s1
11,2500,Cc1cc(Cn2nc(C(=O)O)cc2C)c2nc(N3CC=CCC3)sc2c1
12,51,O=C(O)c1ccn(Cc2cc(Cl)cc3sc(N4CC=CCC4)nc23)n1
13,13,CCN(C)c1nc2c(Cn3nc(C(=O)O)cc3C)cc(Cl)cc2s1
14,9.9,C=Cc1cc(Cn2nc(C(=O)O)cc2C)c2nc(N3CC=CCC3)sc2c1
15,110,Cc1cc(C(=O)O)nn1Cc1cc(Cl)cc2sc(N3CC=CC3)nc12
16,100,Cc1cc(C(=O)O)nn1Cc1cc(Cl)cc2sc(N(C)C)nc12
17,230,Cc1cc(C(=O)O)nn1Cc1cc(C#N)cc2sc(N3CC=CCC3)nc12
18,270,Cc1cc(C(=O)O)nn1Cc1cc(Cl)cc2sc(N3CCCCCC3)nc12
19,1.1,Cc1cc(C(=O)O)nn1Cc1cc(Cl)cc2sc(N3CC=CCC3)nc12
20,6.2,CCN(CC)c1nc2c(Cn3nc(C(=O)O)cc3C)cc(Cl)cc2s1
21,7800,Cc1cc(C(=O)O)nn1Cc1cc(N)cc2sc(N3CC=CCC3)nc12
22,37,COc1cc(Cn2nc(C(=O)O)cc2C)c2nc(N3CC=CCC3)sc2c1
23,63,Cc1cc(C(=O)O)nn1Cc1cc(Cl)cc2sc(N3CCOCC3)nc12

# System: not listed separately
# Assay: Initial concentration in rat at 1 mg/kg, iv
# Assay type: ADME, organism-based
# Conditions: in vivo
row,C0 [ng/mL],Compound
1,6000,Cc1cc(C(=O)O)nn1Cc1cc(Cl)cc2sc(N3CC=CCC3)nc12

# System: not listed separately
# Assay: Half life in rat at 1 mg/kg, iv
# Assay type: ADME, organism-based
# Conditions: in vivo
row,half-life [min],Compound
1,40.7,Cc1cc(C(=O)O)nn1Cc1cc(Cl)cc2sc(N3CC=CCC3)nc12
